Experimental data published in ChEMBL document CHEMBL3091350, “Synthesis and evaluation of the antimalarial, anticancer, and caspase 3 activities of tetraoxane dimers” (Bioorg Med Chem, 2013).
Calls of active or inactive are those of the source. No cut-off for these calls is given here.

Assays:
Plasmodium falciparum [1] = test: Antimalarial activity against chloroquine-sensitive Plasmodium falciparum 3D7 assessed as parasite growth inhibition after 48 hrs by SYBR green-1 dye-based fluorescence assay; format: functional, organism-based; conditions: 3D7, 48 h
[2] = Therapeutic index, ratio of IC50 for human KB cells to IC50 for chloroquine-resistant Plasmodium falciparum K1; format: cell-based; conditions: read-out: Ratio IC50
KB = test: Cytotoxicity against human KB cells assessed as cell viability after 24 hrs by MTT assay; format: functional, cell-based
Plasmodium falciparum [3] = test: Antimalarial activity against chloroquine-resistant Plasmodium falciparum K1 assessed as parasite growth inhibition after 48 hrs by SYBR green-1 dye-based fluorescence assay; format: functional, organism-based; conditions: K1, 48 h
HL-60 [4] = test: Induction of apoptosis in human HL60 cells assessed as activation of caspase-3 activity at 10.1 to 30.3 uM after 24 hrs by flow cytometric analysis; format: functional, cell-based
HL-60 [5] = test: Cytotoxicity against human HL60 cells assessed as cell viability after 24 hrs by MTT assay; format: functional, cell-based; conditions: HL-60, 24 h
[6] = Cytotoxicity against human HT29-AK cells assessed as cell viability after 24 hrs by MTT assay; format: functional, cell-based
Plasmodium falciparum [7] = test: Antimalarial activity against chloroquine-sensitive Plasmodium falciparum 3D7; format: functional, organism-based
Plasmodium berghei [8] = test: Antimalarial activity against Plasmodium berghei ANKA infected in po dosed mouse assessed as inhibition of parasitemia administered for 3 days post-infection measured on day 4 by Giemsa staining; format: functional
Plasmodium berghei [9] = test: Antimalarial activity against Plasmodium berghei ANKA infected in mouse assessed as inhibition of parasitemia at 30 mg/kg, po administered for 3 days post-infection measured on day 4 by Giemsa staining relative to control; format: functional
Plasmodium berghei [10] = test: Antimalarial activity against Plasmodium berghei ANKA infected in mouse assessed as inhibition of parasitemia at 10 mg/kg, po administered for 3 days post-infection measured on day 4 by Giemsa staining relative to control; format: functional
Plasmodium berghei [11] = test: Antimalarial activity against Plasmodium berghei ANKA infected in mouse assessed as inhibition of parasitemia at 3 mg/kg, po administered for 3 days post-infection measured on day 4 by Giemsa staining relative to control; format: functional
Plasmodium berghei [12] = test: Antimalarial activity against Plasmodium berghei ANKA infected in mouse assessed as inhibition of parasitemia at 1 mg/kg, po administered for 3 days post-infection measured on day 4 by Giemsa staining relative to control; format: functional
HL-60 [13] = test: Induction of apoptosis in human HL60 cells assessed as activation of caspase-3 activity at 0.2 to 0.6 uM after 24 hrs by flow cytometric analysis; format: functional, cell-based
HL-60 [14] = test: Induction of apoptosis in human HL60 cells assessed as activation of caspase-3 activity at 9.4 to 28.2 uM after 24 hrs by flow cytometric analysis; format: functional, cell-based

Compound	IC50 (Plasmodium falciparum [1]) [nM]	selectivity ratio [2]	IC50 (KB) [nM]	IC50 (Plasmodium falciparum [3]) [nM]	IC50 (HL-60 [5]) [nM]	IC50 [6] [nM]	other results
O=C(CC1CCC2(CC1)OOC1(CCCCC1)OO2)NCCCCNC(=O)CC1CCC2(CC1)OOC1(CCCCC1)OO2	28.9						
O=C(CC1CCC2(CC1)OOC1(OO2)C2CC3CC(C2)CC1C3)NCCNC(=O)CC1CCC2(CC1)OOC1(OO2)C2CC3CC(C2)CC1C3 (stereo unspecified)	16.9	7040	62700	8.9			
O=C(CC1CCC2(CC1)OOC1(CCCCC1)OO2)NCc1cccc(CNC(=O)CC2CCC3(CC2)OOC2(CCCCC2)OO3)c1	38.6						
O=C(CC1CCC2(CC1)OOC1(OO2)C2CC3CC(C2)CC1C3)NCCCNC(=O)CC1CCC2(CC1)OOC1(OO2)C2CC3CC(C2)CC1C3 (stereo unspecified)	4.7	2530	62100	24.6	20200	22900	Activity (HL-60 [4]): Active
CN1CCN(C2CCN(C(=O)CC3CCC4(CC3)OOC3(OO4)C4CC5CC(C4)CC3C5)CC2)CC1 (stereo unspecified)							IC50 (Plasmodium falciparum [7]): 0.9 nM
CCN(CC)CCCC(C)Nc1ccnc2cc(Cl)ccc12 (stereo unspecified) [CHLOROQUINE]			97700				
CC1(CCC(=O)NCCCN2CCN(CCCNC(=O)CCC3(C)OOC4(CCCCC4)OO3)CC2)OOC2(CCCCC2)OO1 (stereo unspecified)	47.5	40.8	25000	612			ED50 (Plasmodium berghei [8]): > 30 mg/kg; inhibition in vivo at 30 mg/kg (Plasmodium berghei [9]): 33.2%; inhibition in vivo at 10 mg/kg (Plasmodium berghei [10]): 21.4%; inhibition in vivo at 3 mg/kg (Plasmodium berghei [11]): 22.3%; inhibition in vivo at 1 mg/kg (Plasmodium berghei [12]): 2.1%
O=C(CC1CCC2(CC1)OOC1(OO2)C2CC3CC(C2)CC1C3)NCCCCNC(=O)CC1CCC2(CC1)OOC1(OO2)C2CC3CC(C2)CC1C3 (stereo unspecified)	11.2	1870	5040	2.7			ED50 (Plasmodium berghei [8]): 16.1 mg/kg; inhibition in vivo at 30 mg/kg (Plasmodium berghei [9]): 54.8%; inhibition in vivo at 10 mg/kg (Plasmodium berghei [10]): 49.6%; inhibition in vivo at 3 mg/kg (Plasmodium berghei [11]): 27.5%; inhibition in vivo at 1 mg/kg (Plasmodium berghei [12]): 22.1%
C[C@H]1[C@H](OC(=O)CCC(=O)O)O[C@@H]2O[C@@]3(C)CC[C@H]4[C@H](C)CC[C@@H]1[C@@]24OO3 [ARTESUNATE]	1.6				2000	38800	ED50 (Plasmodium berghei [8]): 1.6 mg/kg; inhibition in vivo at 30 mg/kg (Plasmodium berghei [9]): 99.7%; inhibition in vivo at 10 mg/kg (Plasmodium berghei [10]): 95.2%; inhibition in vivo at 3 mg/kg (Plasmodium berghei [11]): 62.4%; inhibition in vivo at 1 mg/kg (Plasmodium berghei [12]): 38.5%
O=C(CC1CCC2(CC1)OOC1(CCCCC1)OO2)NCCCNC(=O)CC1CCC2(CC1)OOC1(CCCCC1)OO2	21.3						
COc1cc([C@@H]2c3cc4c(cc3[C@H](O)[C@H]3COC(=O)[C@H]23)OCO4)cc(OC)c1OC [PODOFILOX]			11.7				
C[C@H]1[C@@H](O)O[C@@H]2O[C@@]3(C)CC[C@H]4[C@H](C)CC[C@@H]1[C@@]24OO3 [ARTENIMOL]	3.5				400	66100	Activity (HL-60 [13]): Active
O=C(CC1CCC2(CC1)OOC1(OO2)C2CC3CC(C2)CC1C3)Nc1ccc(NC(=O)CC2CCC3(CC2)OOC2(OO3)C3CC4CC(C3)CC2C4)cc1 (stereo unspecified)	58.4				> 100000	77600	
O=C(CC1CCC2(CC1)OOC1(OO2)C2CC3CC(C2)CC1C3)NCCCN1CCN(CCCNC(=O)CC2CCC3(CC2)OOC2(OO3)C3CC4CC(C3)CC2C4)CC1 (stereo unspecified)	3.5						ED50 (Plasmodium berghei [8]): 7.7 mg/kg; inhibition in vivo at 30 mg/kg (Plasmodium berghei [9]): 64.5%; inhibition in vivo at 10 mg/kg (Plasmodium berghei [10]): 46.2%; inhibition in vivo at 3 mg/kg (Plasmodium berghei [11]): 43.2%; inhibition in vivo at 1 mg/kg (Plasmodium berghei [12]): 36.1%
CC1(CCC(=O)NCc2cccc(CNC(=O)CCC3(C)OOC4(CCCCC4)OO3)c2)OOC2(CCCCC2)OO1 (stereo unspecified)	416	452	63100	136	34300	32800	
CC1(CCC(=O)Nc2cccc(N)c2)OOC2(CCCCC2)OO1	102				31200	75800	
O=C(CC1CCC2(CC1)OOC1(CCCCC1)OO2)NCCCN1CCN(CCCNC(=O)CC2CCC3(CC2)OOC2(CCCCC2)OO3)CC1	47.1						ED50 (Plasmodium berghei [8]): 6.4 mg/kg; inhibition in vivo at 30 mg/kg (Plasmodium berghei [9]): 63.9%; inhibition in vivo at 10 mg/kg (Plasmodium berghei [10]): 54.3%; inhibition in vivo at 3 mg/kg (Plasmodium berghei [11]): 46.1%; inhibition in vivo at 1 mg/kg (Plasmodium berghei [12]): 29.9%
O=C(CC1CCC2(CC1)OOC1(OO2)C2CC3CC(C2)CC1C3)NCc1cccc(CNC(=O)CC2CCC3(CC2)OOC2(OO3)C3CC4CC(C3)CC2C4)c1 (stereo unspecified)	4				18800	90200	Activity (HL-60 [14]): Active
O=C(CC1CCC2(CC1)OOC1(OO2)C2CC3CC(C2)CC1C3)Nc1cccc(NC(=O)CC2CCC3(CC2)OOC2(OO3)C3CC4CC(C3)CC2C4)c1 (stereo unspecified)	57.2	1320	134000	102	> 100000	92500	
